Literature values, collected in US20210307362A1, “Supplement for animal feed for sucking pigs” (Proviron Holding N.V., priority 2018, published 2021).

SMILES: CCCC(=O)OCC(COC(=O)CCC)OC(=O)CCC [Glycerol tri butyrate]
- solubility in water: insoluble in water
